Measured values reported in ChEMBL document CHEMBL1201862, “PubChem BioAssay data set” (2004).
Structures can show the parent of a compound that is named as a salt. Active and inactive are the calls of the source.

How the values were obtained:
[1] = molecular target: T1, High affinity choline transporter 1 (Homo sapiens, UniProt Q9GZV3); assay: CHT inhibitors, dose response, cell-based, 5-point CRC, membrane potential dye (AID 504840); format: functional
T1 sequence (Q9GZV3 whole entry): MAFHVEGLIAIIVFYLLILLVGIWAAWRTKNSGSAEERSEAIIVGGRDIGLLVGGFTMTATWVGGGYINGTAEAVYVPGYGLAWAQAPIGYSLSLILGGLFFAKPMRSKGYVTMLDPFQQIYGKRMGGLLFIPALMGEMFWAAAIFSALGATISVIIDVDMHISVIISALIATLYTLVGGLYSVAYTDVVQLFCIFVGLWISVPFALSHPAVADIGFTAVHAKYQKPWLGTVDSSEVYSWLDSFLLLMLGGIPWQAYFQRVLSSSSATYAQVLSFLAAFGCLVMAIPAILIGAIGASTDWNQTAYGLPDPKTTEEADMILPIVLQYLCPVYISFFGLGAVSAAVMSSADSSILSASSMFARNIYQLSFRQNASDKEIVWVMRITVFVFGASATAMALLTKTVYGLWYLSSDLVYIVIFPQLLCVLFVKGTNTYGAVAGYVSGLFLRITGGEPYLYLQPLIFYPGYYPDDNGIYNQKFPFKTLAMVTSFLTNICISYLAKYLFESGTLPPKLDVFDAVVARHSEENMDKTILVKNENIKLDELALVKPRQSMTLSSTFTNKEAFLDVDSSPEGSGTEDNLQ

Estrogen receptor = molecular target: T2, Estrogen receptor (Homo sapiens, UniProt P03372);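 note: potency for inhibiting coactivator peptide recruitment to the receptor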
T2 sequence (P03372 whole entry): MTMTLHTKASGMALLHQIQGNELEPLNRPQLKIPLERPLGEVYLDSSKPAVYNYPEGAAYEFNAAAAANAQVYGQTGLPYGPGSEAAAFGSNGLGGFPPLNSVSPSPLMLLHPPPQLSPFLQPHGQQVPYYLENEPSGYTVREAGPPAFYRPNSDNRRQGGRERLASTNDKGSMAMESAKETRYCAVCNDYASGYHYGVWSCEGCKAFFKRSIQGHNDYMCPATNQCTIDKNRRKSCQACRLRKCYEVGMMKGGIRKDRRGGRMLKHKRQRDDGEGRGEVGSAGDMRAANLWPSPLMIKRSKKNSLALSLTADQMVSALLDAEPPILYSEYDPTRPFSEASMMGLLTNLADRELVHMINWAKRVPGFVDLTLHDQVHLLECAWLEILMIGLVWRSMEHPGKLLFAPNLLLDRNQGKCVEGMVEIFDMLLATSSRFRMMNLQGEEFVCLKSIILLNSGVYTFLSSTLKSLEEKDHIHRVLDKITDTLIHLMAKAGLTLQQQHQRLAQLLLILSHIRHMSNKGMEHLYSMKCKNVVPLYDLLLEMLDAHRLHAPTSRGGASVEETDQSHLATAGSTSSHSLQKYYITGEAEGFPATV

Beta-lactamase [2] = molecular target: T3, Beta-lactamase (Pseudomonas aeruginosa, UniProt Q79MP6); assay: […] counterscreen for selective VIM-2 inhibitors: dose response biochemical high throughput screening assay to identify inhibitors of IMP-1 metallo-beta-lactamase.
[3] = molecular target: T1, High affinity choline transporter 1; assay: CHT inhibitors, dose response, cell-based, 10-point CRC, membrane potential dye (AID 588401); format: functional;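 note: membrane potential dye fluorescence of choline-evoked depolarization via CHT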
Beta-lactamase [4] = molecular target: Beta-lactamase (Salmonella choleraesuis (strain SC-B67), UniProt Q5J463); assay: Epi-absorbance-based counterscreen for selective VIM-2 inhibitors: dose response biochemical high throughput screening assay to identify inhibitors of TEM-1 serine-beta-lactamase.
Beta-lactamase [5] = molecular target: T3, Beta-lactamase; assay: IMP-1 metallo-beta-lactamase inhibitors, dose response, selectivity assay for VIM-2 inhibitor project, biochemical, epi-absorbance (AID 1920)
cells [6] = assay: cells
Major prion protein = Major prion protein (Homo sapiens, UniProt P04156); format: functional, cell-based
HEK293 [7] = assay: cells; conditions: Homo sapiens
[8] = HepG2 cell cytotoxicity, dose response, cytotoxicity control, ATP luminescence, cherry-pick, set 6 (AID 1053125); format: functional, cell-based
cells [9] = conditions: HEK293
HEK293 [10] = assay: cells; conditions: Homo sapiens; remark: listed apart in the source
[11] = Luminescence Cell-Based Dose Response HTS to Identify Inhibitors of 5'UTR Stem-Loop Driven Prion Protein mRNA Translation in H4 Neuroglioblastoma Cells. [Related pubchem assays: 1827 (Project Summary), 1813 (Primary HTS)]; format: functional
[12] = inhibitors of firefly luciferase expression or activity, dose response, H4 neuroglioma cells, luminescence (AID 1990); format: functional, cell-based
cells [13] = assay: cells; remark: listed apart in the source
cells [14] = conditions: A549
[15] = molecular target: T4, DNA repair and recombination protein RAD54-like (Homo sapiens, UniProt Q92698); assay: inhibitors of human RAD54 branch migration, confirmation, biochemical, fluorescence, cherry-picked samples, dose series (AID 651657); format: functional
T4 sequence (Q92698 whole entry): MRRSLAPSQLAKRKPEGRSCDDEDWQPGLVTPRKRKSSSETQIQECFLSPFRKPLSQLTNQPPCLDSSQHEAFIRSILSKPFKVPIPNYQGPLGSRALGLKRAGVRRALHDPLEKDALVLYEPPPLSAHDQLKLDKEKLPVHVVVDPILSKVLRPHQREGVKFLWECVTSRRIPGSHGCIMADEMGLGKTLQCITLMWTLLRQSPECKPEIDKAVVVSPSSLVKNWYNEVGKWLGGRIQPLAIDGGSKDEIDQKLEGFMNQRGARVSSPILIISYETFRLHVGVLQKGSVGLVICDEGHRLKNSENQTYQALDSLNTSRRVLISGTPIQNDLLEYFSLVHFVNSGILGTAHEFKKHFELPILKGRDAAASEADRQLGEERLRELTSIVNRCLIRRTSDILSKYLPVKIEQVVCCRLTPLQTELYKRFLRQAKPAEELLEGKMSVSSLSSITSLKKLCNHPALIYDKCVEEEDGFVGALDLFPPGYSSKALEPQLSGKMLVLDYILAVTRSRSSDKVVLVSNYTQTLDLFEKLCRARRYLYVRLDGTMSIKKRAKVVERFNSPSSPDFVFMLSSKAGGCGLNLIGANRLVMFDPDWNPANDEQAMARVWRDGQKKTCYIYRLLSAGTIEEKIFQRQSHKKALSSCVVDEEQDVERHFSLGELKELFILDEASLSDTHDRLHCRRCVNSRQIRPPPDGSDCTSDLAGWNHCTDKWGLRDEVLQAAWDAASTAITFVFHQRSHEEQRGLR

[16] = molecular target: SWI/SNF-related matrix-associated actin-dependent regulator of chromatin subfamily A member 2 (Homo sapiens, UniProt P51531); assay: Luminescence-based cell-based high throughput dose response assay to identify activators of the function of SWI/SNF related, matrix associated, actin dependent regulator of chromatin, subfamily a, member 2 (SMARCA2, BRM).; format: functional
[17] = molecular target: DNA repair protein RAD52 homolog (Homo sapiens, UniProt P43351); format: functional, biochemical
[18] = Counterscreen for activators of the function of SWI/SNF related, matrix associated, actin dependent regulator of chromatin, subfamily a, member 2 (SMARCA2, BRM): Luminescence-based cell-based high throughput dose response assay to identify non-selective compounds using the VP16 reporter assay.; format: functional
[19] = molecular target: Endoplasmic reticulum aminopeptidase 1 (Homo sapiens, UniProt Q9NZ08); assay: ERAP1 aminopeptidase inhibitors, dose response, biochemical, cherry-pick, set 2, plate reader (AID 743314)
[20] = HEp-2 cell cytotoxicity, dose response, cytotoxicity control for RSV inhibitor project, HTS (AID 2410); format: functional; conditions: human respiratory syncytial virus
[21] = Shn3 3'UTR reporter inhibitors, dose response, cell-based, Clone20 osteoblasts, firefly luciferase, cherry-picked (AID 624132); format: functional;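 note: firefly luciferase luminescence from reporter carrying the Shn3 3'UTR in osteoblasts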
[22] = reduction of Shn3 3'UTR firefly luciferase signal, dose response, Schnurri-3 inhibitor project, cell-based, Clone20 osteoblasts, cherry-pick, set 2 (AID 720490); format: functional;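 note: actives lower the luminescence signal as inhibitors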
[23] = A Cell-Based Confirmatory Screen for Compounds that Inhibit VEEV, TC-83 (7).; format: functional

## Cn1ccnc1SCC(=O)Nc1ccc2nc(SCC(=O)NC3CC3)sc2c1
[1]
  IC50: 4.29 µM (active)
Estrogen receptor
  IC50: 25.7 µM (active)
Beta-lactamase [2]
  IC50: > 59.6 µM (inactive)
[3]
  IC50: 0.843 µM (active)
Beta-lactamase [4]
  IC50: > 59.6 µM (inactive)
Beta-lactamase [5]
  IC50: > 59.6 µM (inactive)

## COc1ccc(/C=C\C(=O)NCc2ccc3c(c2)cc(C)n3C)cc1OC
Cells [6]
  IC50: > 138 µM (inactive)
Major prion protein
  IC50: 40.3 µM (inactive)

## Nc1c2ccccc2nc2ccccc12 [AMINACRINE HYDROCHLORIDE]
HEK293 [7]
  EC50: > 59.7 µM (inactive)
[8]
  AC50: 7.15 µM (active)
Cells [9]
  AC50: 2.57 µM (active)
HEK293 [10]
  EC50: > 2.21 µM (active)
[11]
  EC50: > 60 µM (not active)
[12]
  EC50: > 120 µM (not active)
Cells [13]
  AC50: 0.341 µM (active)
Cells [14]
  AC50: 4.06 µM (active)
[15]
  AC50: 2.76 µM (active)
[16]
  EC50: > 3.38 µM (active)
[17]
  AC50: < 1.92 µM (active)
[18]
  EC50: > 91.1 µM (inactive)

## COc1ccc(-c2cc3ccc(O)cc3oc2=O)cc1
[19]
  AC50: 3.06 µM (active)
[20]
  CC50: 49.4 µM (active)

## COc1ccc(CNC(=O)C(c2ccc(C)cc2)N(Cc2cccs2)C(=O)c2ccc3c(c2)OCCO3)cc1 (stereo not given)
[21]
  AC50: 8.1 µM (active)
[22]
  AC50: 13.8 µM (active)

## CN1CCN(C)/C(=N/c2ccc([N+](=O)[O-])cc2C(=O)Nc2ccccc2F)C1
[23]
  IC50: 0.15 µM (active)
